Counter-ions that a name gives are not always drawn.
How the values were obtained:
CSF-1R = CSF-1R (Homo sapiens (Human), UniProt P07333); experiment: In vitro CSF-1R kinase activity measured by trFRET; format: biochemical; conditions: recombinant human catalytic domain (aa 538-910), 0.1 mM ATP; read-out: CSF-1R enzyme IC50
Experimental: In Vitro CSF-1R Kinase Activity Measured by Time-Resolved Fluorescence Resonance Energy Transfer (trFRET)
(§1) The CSF-1R construct corresponds to recombinant human catalytic domain (aa 538-910), which was purchased from Invitrogen (cat #PV4092). CSF-1R was mixed with peptide substrate (biotin-TYR1, Sequence: Biotin-(Ahx)-GAEEEIYAAFFA-COOH, 4 μM final) at varying inhibitor concentrations in reaction buffer: 50 mM MOPSO pH 6.5, 10 mM MgCl2, 2 mM MnCl2, 2.5 mM DTI, 0.01% BSA, 0.1 mM Na3VO4 and 0.1 mM ATP. After about 60 min incubation at rt, the reaction was quenched by addition of EDTA (final concentration: 100 mM) and developed by addition of detection reagents (final approximate concentrations: 30 mM HEPES pH 7.0, 0.06% BSA, 0.006% Tween-20, 0.24 M KF, 80 ng/mL PT66K (europium labeled anti-phosphotyrosine antibody cat #61T66KLB Cisbio, Bedford, Mass.) and 0.6 μg/mL SAXL (Phycolink streptavidin-allophycocyanin acceptor, cat #PJ25S, Prozyme, San Leandro, Calif.). The developed reaction was incubated in the dark for about 60 min at rt, then read via a time-resolved fluorescence detector (Rubystar, BMG) using a 337 nm laser for excitation and monitoring emission wavelength at 665 nm. Within the linear range of the assay, the observed signal at 665 nm was directly related to phosphorylated product and can be used to calculate the IC50 values.

BTK = BTK (Homo sapiens (Human), UniProt Q06187); experiment: In vitro BTK kinase activity measured by trFRET; format: biochemical; conditions: recombinant human catalytic domain (aa 393-659), 0.01 mM ATP; read-out: Btk enzyme IC50
Sequence of BTK (Q06187 393-659): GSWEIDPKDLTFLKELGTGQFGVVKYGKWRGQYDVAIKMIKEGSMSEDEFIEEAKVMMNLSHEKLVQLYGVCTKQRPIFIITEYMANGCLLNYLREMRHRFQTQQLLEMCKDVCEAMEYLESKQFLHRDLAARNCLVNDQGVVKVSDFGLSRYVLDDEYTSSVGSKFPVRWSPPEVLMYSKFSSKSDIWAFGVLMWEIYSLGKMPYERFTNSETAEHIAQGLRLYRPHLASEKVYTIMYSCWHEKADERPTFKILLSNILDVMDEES
Experimental: In Vitro BTK Kinase Activity Measured by Time-Resolved Fluorescence Resonance Energy Transfer (trFRET)
as §1, with “The in-house BTK” for “The CSF-1R construct”, “(aa 393-659),” for “(aa 538-910),”, “was expressed in SF9 cells with an N-terminal his tag and purified by immobilized metal affinity chromatography. BTK” for “was purchased from Invitrogen (cat #PV4092). CSF-1R”, “Biotin-(Ahx)-GAEEEIYAAFFA-COOH, 0.4” for “Biotin-(Ahx)-GAEEEIYAAFFA-COOH, 4”, “mM DTT,” for “mM DTI,”, “and 0.01” for “and 0.1”

Sequence of CSF-1R (P07333 538-910): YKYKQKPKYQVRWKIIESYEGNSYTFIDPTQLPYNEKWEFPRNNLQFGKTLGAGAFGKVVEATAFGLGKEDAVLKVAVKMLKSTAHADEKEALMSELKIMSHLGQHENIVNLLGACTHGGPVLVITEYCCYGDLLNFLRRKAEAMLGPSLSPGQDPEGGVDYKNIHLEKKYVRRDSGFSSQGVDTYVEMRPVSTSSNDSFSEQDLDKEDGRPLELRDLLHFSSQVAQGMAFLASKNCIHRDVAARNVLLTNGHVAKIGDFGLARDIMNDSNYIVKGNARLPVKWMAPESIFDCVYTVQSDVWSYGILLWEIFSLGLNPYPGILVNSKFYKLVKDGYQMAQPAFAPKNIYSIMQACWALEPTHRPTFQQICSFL

Structure (SMILES) | IC50 (CSF-1R) | IC50 (BTK)
C=CC(=O)N1CC[C@@H](c2cc(Nc3ccn(C)n3)c3ncnn3c2)C1 [Example F1.37, (S)-1-(3-(8-((1-methyl-1H-pyrazol-3-yl)amino)-[1,2,4]triazolo[1,5-a]pyridin-6-yl)pyrrolidin-1-yl)prop-2-en-1-one] | – | 1000 to 50000 nM
N#CN1CCCC(c2cc(Nc3cc4n(n3)CCOC4)c3ncnn3c2)C1 (stereo not drawn) [I.1.3, 3-(8-((6,7-dihydro-4H-pyrazolo[5,1-c][1,4]oxazin-2-yl)amino)-[1,2,4]triazolo[1,5-a]pyridin-6-yl)piperidine-1-carbonitrile] | – | 100 to 1000 nM
C=CC(=O)N[C@@H]1CCC[C@H](c2cc(Nc3ccn(C)n3)c3ncnn3c2)C1 [Example F1.35] | – | < 100 nM
C=CC(=O)N1CC[C@H](c2cc(Nc3ccn(C)n3)c3ncnn3c2)C1 [F.1.38, (R)-1-(3-(8-((1-methyl-1H-pyrazol-3-yl)amino)-[1,2,4]triazolo[1,5-a]pyridin-6-yl)pyrrolidin-1-yl)prop-2-en-1-one] | – | < 100 nM
C=CC(=O)NCc1cccc(-c2cn3ncnc3c(NC34CC(C3)C4)n2)c1 [F.1.1] | – | 100 to 1000 nM
C=CC(=O)N1CCC(c2cc(Nc3ccn(C)n3)c3ncnn3c2)C1 (stereo not drawn) [Example 1, 1-(3-(8-((1-methyl-1H-pyrazol-3-yl)amino)-[1,2,4]triazolo[1,5-a]pyridin-6-yl)pyrrolidin-1-yl)prop-2-en-1-one] | – | < 100 nM
C=CC(=O)N1CCC(c2cc(Nc3ccc(OC)nn3)c3ncnn3c2)C1 (stereo not drawn) [Example 2, 1-(3-(8-(6-Methoxypyridazin-3-ylamino)-[1,2,4]triazolo[1,5-a]pyridin-6-yl)pyrrolidin-1-yl)prop-2-en-1-one trifluoroacetate] | – | 100 to 1000 nM

Now from value to compound:

IC50 (CSF-1R) | IC50 (BTK) | Structure (SMILES)
< 100 nM | – | c1nc2c(Nc3cnn(C4CCNCC4)c3)nc(C3CCCC3)cn2n1 [D.1.2, 6-cyclopentyl-N-(1-(piperidin-4-yl)-1H-pyrazol-4-yl)-[1,2,4]triazolo[1,5-a]pyrazin-8-amine]
< 100 nM | – | c1nc2c(Nc3cnn(C4COC4)c3)nc(C3CCCCC3)cn2n1 [A.1.4, 6-cyclohexyl-N-(1-(oxetan-3-yl)-1H-pyrazol-4-yl)-[1,2,4]triazolo[1,5-a]pyrazin-8-amine]
< 100 nM | – | CN1CCn2nc(Nc3cc(C4CCCC4)cn4ncnc34)cc2C1 [E.1.9, 6-cyclopentyl-N-(5-methyl-4,5,6,7-tetrahydropyrazolo[1,5-a]pyrazin-2-yl)-[1,2,4]triazolo[1,5-a]pyridin-8-amine]
< 100 nM | – | Cn1cc(Nc2nc([C@@H]3CCC[C@@H](O)C3)cn3ncnc23)cn1 (single isomer, unassigned) [Example 10]
< 100 nM | – | OCCCn1cc(Nc2nc(C3CCCCC3)cn3ncnc23)cn1 [Example 15, 3-(4-((6-cyclohexyl-[1,2,4]triazolo[1,5-a]pyrazin-8-yl)amino)-1H-pyrazol-1-yl)propan-1-ol]
< 100 nM | – | Cn1cc(Nc2nc(C3CCC(C)(C)CC3)cn3ncnc23)cn1 [E.1.2, 6-(4,4-dimethylcyclohexyl)-N-(1-methyl-1H-pyrazol-4-yl)-[1,2,4]triazolo[1,5-a]pyrazin-8-amine]
< 100 nM | – | CCOC(=O)[C@H]1CC[C@@H](n2cc(Nc3nc(C4CCCCC4)cn4ncnc34)cn2)CC1 [A.1.8, cis-ethyl 4-(4-((6-cyclohexyl-[1,2,4]triazolo[1,5-a]pyrazin-8-yl)amino)-1H-pyrazol-1-yl)cyclohexanecarboxylate]
< 100 nM | – | O[C@@H]1CCC[C@H](n2cc(Nc3nc(C4CCCCC4)cn4ncnc34)cn2)C1 [G.1.3]
< 100 nM | – | Cn1cc(Nc2nc([C@H]3CC[C@@H](C)CC3)cn3ncnc23)cn1 [E.1.4]
< 100 nM | – | CN1CCC(n2cc(Nc3nc(C4CCCCC4)cn4ncnc34)cn2)CC1 [Example 14, 6-cyclohexyl-N-(1-(1-methylpiperidin-4-yl)-1H-pyrazol-4-yl)-[1,2,4]triazolo[1,5-a]pyrazin-8-amine]
– | < 100 nM | C=CS(=O)(=O)N1CC[C@H](c2cn3ncnc3c(Nc3ccc(OC)c(OC)c3)n2)C1 (single isomer, unassigned) [H.1]

Source: patent US10280184B2, “Heterocyclic kinase inhibitors” (AbbVie Inc., priority 2014, dated 2019)
